Test results reported in patent publication US8273900B2, “Organic compounds” (Novartis AG, priority 2008, dated 2012).

Target: T1, human recombinant CRF-1 receptor (Homo sapiens, UniProt P34998)
T1 construct: expressed in transfected cells; host or cells: CHO cells (G418-selected)
T1 sequence (P34998 24-415): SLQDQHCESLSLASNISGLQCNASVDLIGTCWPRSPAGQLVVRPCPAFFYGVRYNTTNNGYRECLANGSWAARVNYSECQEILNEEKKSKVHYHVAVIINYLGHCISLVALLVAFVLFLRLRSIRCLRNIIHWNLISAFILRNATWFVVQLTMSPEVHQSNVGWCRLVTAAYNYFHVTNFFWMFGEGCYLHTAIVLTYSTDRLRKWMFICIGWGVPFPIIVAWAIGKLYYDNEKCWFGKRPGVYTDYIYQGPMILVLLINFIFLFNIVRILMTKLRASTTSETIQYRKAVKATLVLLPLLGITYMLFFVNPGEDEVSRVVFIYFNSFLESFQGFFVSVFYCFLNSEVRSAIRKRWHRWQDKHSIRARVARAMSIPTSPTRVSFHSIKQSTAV
Test: CRF-1 receptor antagonism, HTRF cAMP assay in CHO cells in the presence of 1 nM CRF
Type: cell-based
Details: CHO cells expressing human recombinant CRF-1; inhibition of the effect of 1 nM CRF on cAMP
Procedure: The CRF-1 or CRF-2α receptor antagonistic activity of the agents of the invention has been determined in vitro in the following assay:
Chinese hamster ovary (CHO) cells expressing either the human recombinant CRF-1 or CRF-2a receptors (Chen et al., Proc Natl Acad Sci USA 90, 8967-8971, 1993; Liaw et al., Endocrinology 137, 72-77, 1996) are propagated in Dulbecco's modified Eagle medium supplemented with 10% foetal calf serum, non-essential amino acids, 100 U/ml penicillin, 100 mg/l streptomycin and 1 g/l geneticin (G418). For cyclic AMP determinations the Homogeneous Time-Resolved Fluoresce (HTRF) cAMP dynamic 2 kit (Cisbio International, France) was used as per manufacturers' instructions. CHO cells, previously cryopreserved, were thawed, centrifuged for 7 mins at 1200 rpm and resuspended in serum free media, then pipetted out onto clear bottomed black tissue culture treated 384-well microtitre plates (Corning Inc, US) at 2,000 cells per well. Compounds of the invention, prepared in DMSO, and subsequently diluted 50 fold in assay buffer (1× Hanks balanced salt solution, 0.2% (w/v) bovine serum albumin, 1.7 mM isobutylmethylxanthine and 10 mM Hepes, pH 7.4) are then added onto the cell containing plate where a further 2 fold dilution is performed and incubated for 15 min. Following incubation, buffer containing a 5 times final concentration of agonist is added to the plate and incubated for 30 min. Finally, d2 dye labelled cAMP and cryptate labeled anti-cAMP antibody, both made in lysis buffer, are added to the plate followed by a settling period of 1 hour. During the settling period cAMP produced by the cells competes with the d2 labelled cAMP for the anti-cAMP cryptate. The plate is read on the Pherastar (BMG, Germany). Increasing levels of endogenous cAMP produced by cells can be followed by a decrease of fluorescent signal and vice versa. Values represented by a change in arbitrary fluorescence units are converted into cAMP concentrations by use of a standard curve the reagents for which are supplied with the kit. Antagonist dose response curves (1 nM-30 μM) are constructed in the presence of 1 nM CRF. IC50 values of antagonists are calculated by fitting the percent inhibition of the effect of CRF by increasing concentrations of the antagonists. The fit is performed using the nonlinear logistic function of the Activitybase software package v 5.4.5.27 (IDBS, UK).

Row | Structure (SMILES) | IC50 [nM]
1 | O=C(N[C@H]1CC[C@H](CNc2n[nH]c3cccnc23)CC1)c1cc(C(F)(F)F)ccc1Cl [Example 19.93, Trans-N-(4-((1H-pyrazolo [4,3-b]pyridin-3-ylamino)methyl)cyclohexyl)-2-chloro-5-(trifluoromethyl) benzamide] | 69
2 | O=C(N[C@H]1CC[C@@H](CNc2cc(-c3ccc(F)cc3)n[nH]2)CC1)c1cc(C(F)(F)F)ccc1Cl [Example 14, Cis-2-Chloro-N-(4-{[5-(4-fluoro-phenyl)-2H-pyrazol-3-ylamino]-methyl}-cyclohexyl)-5-trifluoromethyl-benzamide] | 3230
3 | Cn1nc(NC[C@H]2CC[C@H](NC(=O)c3cc(C(F)(F)F)ccc3Cl)CC2)c2ccccc21 [Example 19.70, Trans-2-chloro-N-(4-((1-methyl-1H-indazol-3-ylamino)methyl)cyclohexyl)-5-(trifluoromethyl) benzamide] | 29
4 | Cc1nc(NC[C@H]2CC[C@H](NC(=O)c3cc(C(F)(F)F)ccc3Cl)CC2)sc1C [Example 3, Trans-2-chloro-N-{4-[(4,5-dimethyl-thiazol-2-ylamino)-methyl]-cyclohexyl}-5-trifluoromethyl-benzamide] | 60
5 | CN(Cc1cc(-c2ccccc2)n[nH]1)C[C@H]1CC[C@H](NC(=O)c2cc(Cl)ccc2Cl)CC1 [Example 11, Trans-2,5-Dichloro-N-(4-{[methyl-(5-phenyl-2H-pyrazol-3-ylmethyl)amino]-methyl}-cyclohexyl)-benzamide] | 174
6 | Cc1ncc(Cl)cc1C(=O)N[C@H]1CC[C@H](Cn2nc(C)c(Cl)c2C)CC1 [Example 17, Trans-5-Chloro-N-[4-(4-chloro-3,5-dimethyl-pyrazol-1-ylmethyl)-cyclohexyl]-2-methyl-nicotinamide] | 70
7 | Cc1cccc2[nH]nc(NC[C@H]3CC[C@H](NC(=O)c4cc(C(F)(F)F)ccc4Cl)CC3)c12 [Example 19.65, Trans-2-chloro-N-(4-((4-methyl-1H-indazol-3-ylamino)methyl)cyclohexyl)-5-(trifluoromethyl) benzamide] | 53
8 | Cc1cc(NC[C@H]2CC[C@H](NC(=O)c3cc(Cl)cnc3C)CC2)ncc1Cl [Example 19.83, Trans-5-chloro-N-(4-((5-chloro-4-methylpyridin-2-ylamino)methyl)cyclohexyl)-2-methyl-nicotinamide] | 38
9 | Cc1cc(NC[C@H]2CC[C@H](NC(=O)c3cc(C(F)(F)F)ccc3Cl)CC2)ncc1Cl [Example 19.69, Trans-2-chloro-N-(4-((5-chloro-4-methylpyridin-2-ylamino)methyl)cyclohexyl)-5-(trifluoromethyl) benzamide] | 22
10 | O=C(N[C@H]1CC[C@H](Cn2cc3ccccc3n2)CC1)c1cc(C(F)(F)F)ccc1Cl [Example 21.2, 2-Chloro-N-(4-indazol-2-ylmethyl-cyclohexyl)-5-trifluorometnyl-benzamide] | 338
11 | Cc1ncc(Cl)cc1C(=O)N[C@H]1CC[C@H](CNc2n[nH]c3c2CCCC3)CC1 [Example 19.55, Trans-5-chloro-2-methyl-N-(4-((4,5,6,7-tetrahydro-1H-indazol-3-ylamino)methyl)cyclohexyl) nicotinamide] | 143
12 | Cc1nn(C[C@H]2CC[C@H](NC(=O)c3cc(C(F)(F)F)ccc3Cl)CC2)c(C)c1Cl [Example 21.8, 2-Chloro-N-[4-(4-chloro-3,5-dimethyl-pyrazol-1-ylmethyl)-cyclohexyl]-5-trifluoromethyl-benzamide] | 113
13 | O=C(N[C@H]1CC[C@H](Cn2ncc3ccccc32)CC1)c1cc(C(F)(F)F)ccc1Cl [Example 21.1, N-(4-((1H-indazol-1-yl)methyl)cyclohexyl)-2-chloro-5-(trifluoromethyl) benzamide] | 114
14 | CC(Nc1ccccc1)[C@H]1CC[C@H](NC(=O)c2cc(C(F)(F)F)ccc2Cl)CC1 (stereo partly drawn) [Example 15, Trans-2-Chloro-N-[4-(1RS-phenylamino-ethyl)-cyclohexyl]-5-trifluoromethyl-benzamide] | 108
15 | Cc1ccc(NC[C@H]2CC[C@H](NC(=O)c3cc(C(F)(F)F)ccc3Cl)CC2)nc1 [Example 2.8, Trans-2-Chloro-N-{4-[(5-methyl-pyridin-2-ylamino)-methyl]-cyclohexyl}-5-trifluoromethyl-benzamide] | 66
16 | O=C(N[C@H]1CC[C@H](CNc2n[nH]c3ccc(F)cc23)CC1)c1cc(C(F)(F)F)ccc1Cl [Example 19.62, Trans-2-chloro-N-(4-((5-fluoro-1H-indazol-3-ylamino)methyl)cyclohexyl)-5-(trifluoromethyl) benzamide] | 90
17 | Cc1cncc(NC[C@H]2CC[C@H](NC(=O)c3cc(C(F)(F)F)ccc3Cl)CC2)c1 [Example 10, Trans-2-chloro-N-(4-((5-methylpyridin-3-ylamino)methyl)-cyclohexyl)-5-(trifluoromethyl)benzamide] | 41
18 | O=C(N[C@H]1CC[C@H](CNc2ccc(F)cn2)CC1)c1cc(C(F)(F)F)ccc1Cl [Example 19.2, Trans-2-chloro-N-(4-((5-fluoropyridin-2-ylamino)methyl)cyclohexyl)-5-(trifluoromethyl) benzamide] | 23
19 | O=C(N[C@H]1CC[C@H](CNc2n[nH]cc2-c2ccccc2)CC1)c1cc(C(F)(F)F)ccc1Cl [Example 19.94, Trans-2-chloro-N-(4-((4-phenyl-1H-pyrazol-3-ylamino)methyl)cyclohexyl)-5-(trifluoromethyl) benzamide] | 59
20 | CCCc1[nH]nc(NC[C@H]2CC[C@H](NC(=O)c3cc(C(F)(F)F)ccc3Cl)CC2)c1Br [Example 19.76, Trans-N-(4-((4-bromo-5-propyl-1H-pyrazol-3-ylamino)methyl)cyclohexyl)-2-chloro-5-(trifluoromethyl) benzamide] | 78
21 | Cc1cc(NC[C@H]2CC[C@H](NC(=O)c3cc(C(F)(F)F)ccc3Cl)CC2)ncc1F [Example 19.26, Trans-2-chloro-N-(4-((5-fluoro-4-methylpyridin-2-ylamino)methyl)cyclohexyl)-5-(trifluoromethyl) benzamide] | 13
22 | CCc1cncc(NC[C@H]2CC[C@H](NC(=O)c3cc(C(F)(F)F)ccc3Cl)CC2)c1 [Example 19.53, Trans-2-chloro-N-(4-((5-ethylpyridin-3-ylamino)methyl)cyclohexyl)-5-(trifluoromethyl) benzamide] | 28
23 | O=C(N[C@H]1CC[C@H](CNc2n[nH]cc2-c2ccc(Cl)cc2)CC1)c1cc(C(F)(F)F)ccc1Cl [Example 19.80, Trans-2-chloro-N-(4-((4-(4-chlorophenyl)-1H-pyrazol-3-ylamino)methyl)cyclohexyl)-5-(trifluoromethyl) benzamide] | 15
24 | O=C(N[C@H]1CC[C@H](CNc2ccccc2)CC1)c1cccc(Cl)c1 [Example 12, Trans-3-Chloro-N-(4-phenylaminomethyl-cyclohexyl)-benzamide] | 137
25 | Cc1[nH]nc(NC[C@H]2CC[C@H](NC(=O)c3cc(C(F)(F)F)ccc3Cl)CC2)c1-c1ccc(Cl)cc1 [Example 19.91, Trans-2-chloro-N-(4-((4-(4-chlorophenyl)-5-methyl-1H-pyrazol-3-ylamino)methyl)cyclohexyl)-5-(trifluoromethyl) benzamide] | 57
26 | Cc1cc(NC[C@H]2CC[C@H](NC(=O)c3cc(C(F)(F)F)ccc3Cl)CC2)n(-c2ccc(Cl)cc2)n1 [Example 19.116, Trans-2-Chloro-N-(4-{[2-(4-chloro-phenyl)-5-methyl-2H-pyrazol-3-ylamino]-methyl}-cyclohexyl)-5-trifluoromethyl-benzamide] | 59
27 | O=C(N[C@H]1CC[C@H](CNc2[nH]ncc2-c2cccnc2)CC1)c1cc(C(F)(F)F)ccc1Cl [Example 19.103, Trans-2-Chloro-N-{4-[(4-pyridin-3-yl-2H-pyrazol-3-ylamino)-methyl]-cyclohexyl}-5-trifluoromethyl-benzamide] | 37
